In US20080206738A1, “Compositions and methods for modulating S-nitrosoglutathione reductase” (Duke University, priority 2003, published 2008):

Key:
[1] = test system: animal models of endotoxic shock; conditions: literature (Feihl et al., 2001; Ou et al., 1997); cited from earlier work
[2] = test system: LPS-challenged GSNOR−/− mice; test: iNOS inhibition with 1400 W in LPS-challenged GSNOR−/− mice (endotoxic shock); type: in vivo, mouse
Description: Blood was obtained by cardiac puncture after animals were euthanized by CO2 inhalation. The following serum chemistries were quantified by Antech Diagnostics (Farmingdale, N.Y.): alanine aminotransferase (ALT), aspartate aminotransferase (AST), creatine phosphokinase (CPK), urea nitrogen (BUN), creatinine, amylase, lipase, lactate dehydrogenase, alkaline phosphatase, total protein, globulin, albumin, calcium, magnesium, sodium, potassium, chloride, phosphorus, glucose, bilirubin, cholesterol, triglycerides, and osmolality.
Serum nitrate and nitrite were measured by capillary electrophoresis (CE) (Zunic et al., 1999) with a P/ACE MDQ system (Beckman) and by chemiluminescence (Sievers NO Analyzer). For CE, sera were diluted (1:10) with water and filtered through a 5 kDa cut-off membrane. Electrophoresis of the filtered samples and of nitrate and nitrite standards was carried out in a neutral capillary with Tris buffer (100 mM, pH 8.0), and monitored by absorbance at 214 nm. Nitrite concentrations are higher when measured by CE than by chemiluminescence (Zunic et al., 1999), but no relative differences between CE and chemiluminescence were observed.
LPS (E. coli, serotype 026:B6, Sigma) at a dosage of 150,000 endotoxin units/g (EU/g) was injected intraperitoneally into C57BL/6 and GSNOR^−/− mice. The mice were matched for age (11-12 weeks old), gender, and weight. LPS used for the males was lot number 050K4117 (15 million EU/mg) and LPS used for the females was lot number 101K4080 (3 million EU/mg). Studies were done in 45 additional male mice (22 wild-type and 23 GSNOR^−/−) administered lot number 101K4080. […] Phosphate-buffered saline (PBS, 20 μl/g) was injected in controls. In additional sets of experiments, LPS-challenged GSNOR^−/− mice were injected subcutaneously with the iNOS inhibitor 1400 W (1 μg/g, Cayman) or PBS (10 μl/g). Injections were performed at 6, 24 and 30 hours after LPS, or at 24, 42 and 48 hours after LPS.
Liver homogenates were prepared in lysis buffer (20 mM Tris-HCl, pH 8.0, 0.5 mM EDTA, 100 μM diethylenetriamine pentaacetic acid, 0.1% NP-40 and 1 mM phenylmethylsulfonyl fluoride). SNO levels in the total lysate and in a fraction filtered through a 5 kDa cut-off ultrafiltration membrane (low-mass SNO) were measured by photolysis-chemiluminescence (Liu et al., 2000b) and normalized for protein content.
Survival data on day 6 after LPS treatment were analyzed by both the χ^2 test and the Fisher exact test of contingency tables, with similar results. Blood pressure, SNO levels and serum chemistries were analyzed with the Student's t-test or with the nonparametric Mann-Whitney test.
Additional experiments were performed to establish the contribution of nitrosative stress to the pathogenesis of endotoxic shock. LPS-challenged GSNOR^−/− mice were treated with 1400 W, a selective iNOS inhibitor. Administration of 1400 W, initiated 6 h following LPS injection, reduced serum nitrate (i.e., NOS activity) by about 50% (FIG. 7A, P=0.015) and liver injury by about 90% (FIG. 7C, P=0.020). This improvement coincided with a reduction of liver SNO by about 90% (FIG. 7B). […] By comparison, PBS (volume control) had little effect (FIG. 7D vs. FIG. 3D). When administration of 1400 W was delayed for 24 h following LPS injection, this allowed SNOs to accumulate to hazardous levels, and the protection conferred by NOS inhibition was lost (3 out of 5 female GSNOR^−/− mice died).

[3] = target: T1, GRK2 (Homo sapiens, UniProt P25098); test: Purified GRK2-mediated in vitro phosphorylation of a soluble peptide substrate (RRREEEEESAAA); type: biochemical; conditions: 500, 50, and 5 μM; n=2; P<0.05
T1 sequence (P25098 1-689): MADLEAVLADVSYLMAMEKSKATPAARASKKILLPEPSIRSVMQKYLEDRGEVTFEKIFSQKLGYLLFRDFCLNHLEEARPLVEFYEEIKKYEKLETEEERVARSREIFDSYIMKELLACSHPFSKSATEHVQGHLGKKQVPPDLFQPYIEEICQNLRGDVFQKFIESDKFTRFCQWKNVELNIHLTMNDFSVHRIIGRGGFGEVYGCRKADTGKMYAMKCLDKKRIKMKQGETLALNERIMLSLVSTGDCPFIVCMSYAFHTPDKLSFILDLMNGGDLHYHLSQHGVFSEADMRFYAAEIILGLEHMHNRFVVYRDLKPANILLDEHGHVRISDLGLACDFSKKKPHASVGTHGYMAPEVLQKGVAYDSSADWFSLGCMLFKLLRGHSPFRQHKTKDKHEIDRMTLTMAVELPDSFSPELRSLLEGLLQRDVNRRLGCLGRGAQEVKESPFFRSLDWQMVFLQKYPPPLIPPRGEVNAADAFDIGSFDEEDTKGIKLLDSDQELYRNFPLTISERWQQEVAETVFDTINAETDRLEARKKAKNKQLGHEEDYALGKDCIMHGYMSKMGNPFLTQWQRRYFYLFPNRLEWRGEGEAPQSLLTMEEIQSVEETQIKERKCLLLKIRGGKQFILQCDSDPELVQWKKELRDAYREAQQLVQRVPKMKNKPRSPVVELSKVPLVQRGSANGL
Procedure: FIGS. 12A-12B: Effect of cysNO (A: 500, 50, and 5 μM) and GSNO (B: 500, 50, and 5 μM) on purified GRK2 mediated in vitro phosphorylation of a soluble peptide substrate (RRREEEEESAAA; SEQ ID NO:30) (n=2; *P<0.05).
To confirm this, experiments were performed to examine the capacity of SNOs to inhibit purified GRK2-mediated phosphorylation of a synthetic peptide substrate (RRREEEEESAAA; SEQ ID NO:30).

[4] = test system: cardiac β-ARs; test: Chronic isoproterenol-induced cardiac hypertrophy and β-AR down-regulation in mice (mini-osmotic pump); type: in vivo, mouse
Procedure: FIGS. 13A-13C: Results of Cardiac Studies. FIG. 13A: Heart weight to body weight ratio (hw:bw, mg:g) (n=10); FIG. 13B: Cardiac β-AR density (BMax, fmol/mg protein (n=5); FIG. 13C: Cardiac PARK protein expression levels (n=4), in mice following mini-osmotic pump implantation and treatment for 7 days with either PBS, isoproterenol (ISO) (30 mg/kg/day), GSNO (10 mg/kg/day) or a combination of ISO and GSNO. All data expressed as mean (+/−SEM) (*P<0.05 versus PBS treated mice, +P<0.05 versus ISO treated mice, unpaired t test).
One well established model of experimental cardiac hypertrophy in the mouse involves the chronic administration of the β-AR agonist, isoproterenol. This treatment leads to a functional uncoupling and down-regulation of cardiac β-ARs and the development of a significant increase in wall mass. Experiments were performed to study the effects of GSNO on the development of cardiac hypertrophy and its ability to alter the pattern of β-AR down-regulation associated with chronic isoproterenol stimulation.
Whole cell and membrane receptor/ligand binding was performed to assess functional affinity of receptor for ligand and overall receptor density as described previously. In particular, whole cell and membrane binding was assessed for cells treated with multiple concentrations of NO/SNO in the presence and absence of desensitizing conditions (agonist pre-stimulation).
In contrast, the combined infusion of GSNO with ISO maintained P receptor density (FIG. 13B) because it inhibits PARK (GRK2) (FIGS. 12A-12B). Therefore, inhibitors of GSNOR alone or in combination with β-agonists could be used to improve heart failure, or other vascular disorders such as hypertension and asthma.

[5] = target: T1, GRK2; test: GRK2-mediated phosphorylation of rhodopsin from purified bovine rod outer segments; type: biochemical; conditions: cysNO 5, 50, 500 μM, light stimulated
Procedure: (§1) FIGS. 11A-11B. Results from GRK studies. FIG. 11A. Representative gel from experiments examining the effect of cysNO (500, 50, and 5 μM) on isoproterenol (10 μM) stimulated GRK2 mediated receptor phosphorylation using purified β2-AR reconstituted in synthetic vesicles and purified GRK2. FIG. 11B: Representative gel from experiments examining the effect of cysNO (5, 50, and 500 μM) light stimulated GRK2 mediated phosphorylation of rhodopsin using purified bovine rod outer segments and purified GRK2.
(§2) Previous data provided strong evidence supporting the hypothesis that NO prevented GRK (G protein-coupled receptor kinase)-mediated phosphorylation of the β2-AR (adrenergic receptor). Further experiments were required to determine whether NO was acting directly on the receptor or the GRKs. To elucidate the site of NO action, its effect was tested on GRK2-mediated phosphorylation of the β2-AR and on a soluble peptide substrate using purified proteins in a reconstituted system.

[6] = target: T1, GRK2; test: GRK2-mediated phosphorylation of purified β2-AR in a reconstituted system; type: biochemical; conditions: cysNO 500, 50, 5 μM; isoproterenol (10 μM) stimulated; β2-AR reconstituted in synthetic vesicles
Procedure: as §1, §2

[7] = administration of 1400 W delayed for 24 h following LPS injection
[8] = GSNO 10 mg/kg/day via osmotic mini-pump with ISO 30 mg/kg/day
[9] = ISO infused for 7 days using a pump (30 mg/kg/day)

CC(=N)NCc1cccc(CN)c1 [1400 W, N-[3-(aminomethyl)benzyl]acetamidine]
effect on injury in animal models of endotoxic shock [1]: either have little effect or worsen injury
survival rate of LPS-challenged GSNOR−/− mice ([2]; 1400 W initiated 6 h following LPS injection, P=0.03): significantly improved
reduction of serum nitrate (i.e., NOS activity) ([2]; GSNOR−/− mice, 1400 W 1 μg/g s.c. initiated 6 h following LPS injection, P=0.015): about 50%
reduction of liver SNO ([2]; GSNOR−/− mice, 1400 W initiated 6 h following LPS injection): about 90%
reduction of liver injury (serum ALT) ([2]; GSNOR−/− mice, 1400 W initiated 6 h following LPS injection, P=0.020): about 90%
tissue injury in kidney, pancreas, and muscle (serum markers) ([2]; GSNOR−/− mice, 48 h after LPS treatment, 1400 W initiated 6 h following LPS): reduced
female GSNOR−/− mice that died [2, 7]: 3 out of 5
protection conferred by NOS inhibition [2, 7]: lost

N[C@@H](CCC(=O)N[C@@H](CSN=O)C(=O)NCC(=O)O)C(=O)O [GSNO, S-nitrosoglutathione]
GRK2 mediated phosphorylation of the synthetic peptide substrate [3]: significantly inhibited
isoproterenol-stimulated changes in heart weight to body weight ratio [4, 8]: no effect
β-AR down-regulation [4, 8]: significantly decreased
β receptor density ([4]; combined infusion of GSNO with ISO): maintained

CC(=N)NCCCC[C@H](N)C(=O)O [N-(1-iminoethyl)-L-lysine, N6-(1-Iminoethyl)-L-lysine]
effect on injury in animal models of endotoxic shock [1]: either have little effect or worsen injury

N[C@@H](CSN=O)C(=O)O [cysNO]
GRK2-mediated phosphorylation of rhodopsin [5]: significantly decreased
GRK2 mediated phosphorylation of the synthetic peptide substrate [3]: significantly inhibited
GRK2-mediated phosphorylation of the purified β2-AR [6]: significantly decreased

CC(C)NCC(O)c1ccc(O)c(O)c1 (stereo not shown) [isoproterenol]
cardiac weight [4, 9]: increases
β adrenergic receptor levels [4, 9]: decreased
βARK (GRK2) expression [4, 9]: increased
